Measured values: patent publication US10947188B2, “Small molecule ferroptosis inducers” (THE TRUSTEES OF COLUMBIA UNIVERSITY IN THE CITY OF NEW YORK, priority 2016, dated 2021)

Tested on: BJeLR
Test: Modulatory profiling: Alamar Blue viability, lethal compound cotreated with death modulator (EC50, AUC)
Type: cell-based, human
Set-up: AUC, modulator BJ.Gd3+ / AUC, modulator BJ.LNAME / AUC, modulator BJ.Lmin / AUC, modulator BJ.3MA / AUC, modulator BJ.ALLN / AUC, modulator BJ.Boc D / AUC, modulator BJ.CHX / AUC, modulator BJ.Co2+ / AUC, modulator BJ.Nec-1 / AUC, modulator BJ.Pepstatin / AUC, modulator BJ.TLCK / AUC, modulator BJ.atoc / AUC, modulator BJ.trolox / AUC, modulator BJ.zVAD: unit not given beside the values
Settings: BJeLR cells, modulatory profile value (AUC); for AUC, modulator BJ.3MA: lethal compound cotreated with modulator 3MA; for AUC, modulator BJ.ALLN: lethal compound cotreated with modulator ALLN; for AUC, modulator BJ.Boc D: lethal compound cotreated with modulator Boc D; for AUC, modulator BJ.CHX: lethal compound cotreated with modulator CHX; for AUC, modulator BJ.Co2+: lethal compound cotreated with modulator Co2+; for AUC, modulator BJ.DPQ: lethal compound cotreated with modulator DPQ; for AUC, modulator BJ.Gd3+: lethal compound cotreated with modulator Gd3+; for AUC, modulator BJ.LNAME: lethal compound cotreated with modulator LNAME; for AUC, modulator BJ.Lmin/NAD+: lethal compound cotreated with modulator Lmin/NAD+; for AUC, modulator BJ.Lmin: lethal compound cotreated with modulator Lmin; for AUC, modulator BJ.NAD+: lethal compound cotreated with modulator NAD+; for AUC, modulator BJ.NMMA: lethal compound cotreated with modulator NMMA; for AUC, modulator BJ.Nec-1: lethal compound cotreated with modulator Nec-1; for AUC, modulator BJ.Pepstatin: lethal compound cotreated with modulator Pepstatin; for AUC, modulator BJ.TLCK: lethal compound cotreated with modulator TLCK; for AUC, modulator BJ.atoc: lethal compound cotreated with modulator atoc; for AUC, modulator BJ.trolox: lethal compound cotreated with modulator trolox; for AUC, modulator BJ.zVAD: lethal compound cotreated with modulator zVAD

| SMILES | AUC, modulator BJ.3MA | AUC, modulator BJ.ALLN | AUC, modulator BJ.Boc D | AUC, modulator BJ.CHX | AUC, modulator BJ.Co2+ | AUC, modulator BJ.DPQ | AUC, modulator BJ.Gd3+ | AUC, modulator BJ.LNAME | AUC, modulator BJ.Lmin/NAD+ | AUC, modulator BJ.Lmin | AUC, modulator BJ.NAD+ | AUC, modulator BJ.NMMA | AUC, modulator BJ.Nec-1 | AUC, modulator BJ.Pepstatin | AUC, modulator BJ.TLCK | AUC, modulator BJ.atoc | AUC, modulator BJ.trolox | AUC, modulator BJ.zVAD |
| --- | --- | --- | --- | --- | --- | --- | --- | --- | --- | --- | --- | --- | --- | --- | --- | --- | --- | --- |
| C=C(C)[C@H]1Cc2c(ccc3c2O[C@@H]2COc4cc(OC)c(OC)cc4[C@@H]2C3=O)O1 [Rotenone] | −0.0266 | −0.03435 | −0.01674 | 0.1066 | 0.0838 | −0.02278 | 0.01421 | −0.01131 | 0.1439 | 0.06492 | 0.1037 | 0.005801 | −0.02888 | 0.02007 | −0.02169 | 0.05116 | −0.01075 | 0.04408 |
| O=C(CCCCCN1C(=O)c2cccc3cccc(c23)C1=O)NO [Scriptaid] | −0.0206 | −0.07856 | 0.03167 | 0.2681 | 0.2406 | 0.004892 | 0.0289 | 0.03611 | 0.2114 | 0.1113 | 0.1384 | 0.02102 | 0.02804 | −0.0282 | 0.07545 | −0.005396 | −0.0185 | 0.1205 |
| CC(/C=C/C(=O)NO)=C\[C@@H](C)C(=O)c1ccc(N(C)C)cc1 [TrichostatinA] | −0.004309 | −0.08774 | 0.09612 | 0.2588 | 0.3091 | −0.009523 | −0.008802 | −0.04203 | 0.1597 | 0.08423 | 0.05544 | −0.01861 | −0.04751 | −0.01284 | 0.02879 | −0.01806 | −0.02672 | 0.1198 |
| CC[C@]1(O)C[C@@H]2CN(CCc3c([nH]c4ccccc34)[C@@](C(=O)OC)(c3cc4c(cc3OC)N(C)[C@H]3[C@@](O)(C(=O)OC)[C@H](OC(C)=O)[C@]5(CC)C=CCN6CC[C@]43[C@@H]65)C2)C1 [Vinbiastine] | 0.0131 | −0.07228 | 0.001717 | 0.2328 | 0.1876 | −0.0312 | 0.008351 | −0.0006349 | 0.1715 | 0.06584 | 0.1373 | 0.008107 | −0.06176 | 0.002398 | −0.003672 | 0.1487 | −0.01145 | 0.01552 |
| CC[C@]1(O)C[C@H]2CN(CCc3c([nH]c4ccccc34)[C@@](C(=O)OC)(c3cc4c(cc3OC)N(C=O)[C@H]3[C@@](O)(C(=O)OC)[C@H](OC(C)=O)[C@]5(CC)C=CCN6CC[C@]43[C@@H]65)C2)C1 [Vincristine] | −0.03566 | −0.03171 | −0.005016 | 0.1955 | 0.1806 | −0.03044 | 0.007944 | −0.00717 | 0.1721 | 0.06034 | 0.1255 | −0.003354 | −0.05572 | −0.002521 | −0.01255 | 0.04717 | −0.03305 | 0.01856 |
| C[C@@H]1C[C@@H]([C@H](O)CC2CC(=O)NC(=O)C2)C(=O)[C@@H](C)C1 [cycloheximide, Cycloheximide, reference compound] | 0.03847 | 0.09461 | 0.02242 | 0.3613 | 0.2375 | 0.02122 | 0.02359 | 0.007696 | 0.1057 | 0.0775 | 0.08265 | 0.002535 | 0.03326 | 0.01475 | 0.03153 | 0.0001672 | 0.01856 | 0.02186 |
